Laboratory results as given in patent US20080058213A1, “Benzoxazole Compounds” (priority 2004, published 2008).

Experiments:
Type in all cases: in vivo
soybean [1] = experiment: Soil treatment test for upland field (Test Example 2): phytotoxicity to soybean; conditions: soil treatment before germination, examined after 3 weeks
From the text: (§1) Evaluation of phytotoxicity is shown in the following six grades, as compared with the condition of untreated control: • 0: normal growth • 1: little damaged • 2: low damaged • 3: medium damaged • 4: serious damaged • 5: complete killed.
(§2) Upland field soil was filled in 1/3,000 are pots, seeded with southern crabgrass (Digitaria ciliaris), common lambsquaters (Chenopodium album), slender amaranth (Amaranthus viridis), common purslane (Portulaca oleracea), velvetleaf (Abutilon theophrasti), wheat, corn and soybean. The seeds were covered up with the soil.
(§3) After placing the test pots in a glasshouse which was kept at an average temperature of 25° C. for 3 weeks, the herbicidal effect was examined.

[2] = system: common purslane (Portulaca oleracea); experiment: Soil treatment test for upland field (Test Example 2): common purslane; conditions: soil treatment before germination, examined after 3 weeks
From the text: (§4) Evaluation of the herbicidal effect is shown in the following six grades, by comparing the condition of untreated control and growth inhibition (%): • 0: 0%-less than 20% • 1: 20%-less than 40% • 2: 40%-less than 60% • 3: 60%-less than 80% • 4: 80%-less than 100% • 5: 100%.
as §2
(§5) Wettable powders containing the object compounds (1) as identified in Table 1, which were formulated following Preparation Example 2, were diluted with adequate amount of water to secure the prescribed dose of the active ingredient, and uniformly sprayed onto the surface soil layer after the seeding and before germination of the weeds, at an application water of 15 liters per are.
as §3
(§6) Evaluations of the herbicidal effect and phytotoxicity were made in the manner similar to those in the above Test Example 1.

[3] = system: velvetleaf (Abutilon theophrasti); experiment: Soil treatment test for upland field (Test Example 2): velvetleaf; conditions: soil treatment before germination, examined after 3 weeks
From the text: as §4, §2, §5, §3, §6

[4] = system: slender amaranth (Amaranthus viridis); experiment: Soil treatment test for upland field (Test Example 2): slender amaranth; conditions: soil treatment before germination, examined after 3 weeks
From the text: as §4, §2, §5, §3, §6

wheat [5] = experiment: Soil treatment test for upland field (Test Example 2): phytotoxicity to wheat; conditions: soil treatment before germination, examined after 3 weeks
From the text: as §1, §2, §3

[6] = system: southern crabgrass (Digitaria ciliaris); experiment: Soil treatment test for upland field (Test Example 2): southern crabgrass; conditions: soil treatment before germination, examined after 3 weeks
From the text: as §4, §2, §5, §3, §6

corn [7] = experiment: Soil treatment test for upland field (Test Example 2): phytotoxicity to corn; conditions: soil treatment before germination, examined after 3 weeks
From the text: as §1, §2, §3

[8] = system: common lambsquaters (Chenopodium album); experiment: Soil treatment test for upland field (Test Example 2): common lambsquaters; conditions: soil treatment before germination, examined after 3 weeks
From the text: as §4, §2, §5, §3, §6

southern crabgrass = experiment: Foliage treatment test for upland field (Test Example 3): southern crabgrass; conditions: foliage treatment at 1.0-2.0 leaf stage of southern crabgrass, examined after 3 weeks
From the text: as §4
(§7) Compost mixed soil was filled in 1/3,000 are pots, seeded with southern crabgrass, common lambsquaters, slender amaranth, common purslane, velvetleaf, wheat, corn and soybean. The seeds were covered up with the soil and cultured in a glasshouse kept at 25° C. on the average.
(§8) Wettable powders containing the object compounds (1) as identified in Table 1, which were formulated following Preparation Example 2, were diluted with water to the prescribed dose of the active ingredient, and uniformly sprayed onto the weeds at 1.0-2.0 leaf stage of the southern crabgrass at an application water of 15 liters per are.
(§9) After placing the test pots in a grasshouse kept at 25° C. on the average for 3 weeks, the herbicidal effect was examined.
(§10) Evaluation of the herbicidal effect was conducted in the similar manner to Test Example 1.

soybean [9] = experiment: Foliage treatment test for upland field (Test Example 3): phytotoxicity to soybean; conditions: foliage treatment at 1.0-2.0 leaf stage of southern crabgrass, examined after 3 weeks
Method: as §1, §7, §9

common purslane = experiment: Foliage treatment test for upland field (Test Example 3): common purslane; conditions: foliage treatment at 1.0-2.0 leaf stage of southern crabgrass, examined after 3 weeks
From the text: as §4, §7, §8, §9, §10

corn [10] = experiment: Foliage treatment test for upland field (Test Example 3): phytotoxicity to corn; conditions: foliage treatment at 1.0-2.0 leaf stage of southern crabgrass, examined after 3 weeks
Method: as §1, §7, §9

slender amaranth = experiment: Foliage treatment test for upland field (Test Example 3): slender amaranth; conditions: foliage treatment at 1.0-2.0 leaf stage of southern crabgrass, examined after 3 weeks
From the text: as §4, §7, §8, §9, §10

velvetleaf = experiment: Foliage treatment test for upland field (Test Example 3): velvetleaf; conditions: foliage treatment at 1.0-2.0 leaf stage of southern crabgrass, examined after 3 weeks
From the text: as §4, §7, §8, §9, §10

common lambsquaters = experiment: Foliage treatment test for upland field (Test Example 3): common lambsquaters; conditions: foliage treatment at 1.0-2.0 leaf stage of southern crabgrass, examined after 3 weeks
From the text: as §4, §7, §8, §9, §10

wheat [11] = experiment: Foliage treatment test for upland field (Test Example 3): phytotoxicity to wheat; conditions: foliage treatment at 1.0-2.0 leaf stage of southern crabgrass, examined after 3 weeks
Method: as §1, §7, §9

Row | Compound | Phytotoxicity soybean (soybean [1]; dose 2.5 g ai/a) | Phytotoxicity soybean (soybean [1]; dose 5 g ai/a) | Herbicidal Effect common purslane ([2]; dose 2.5 g ai/a) | Herbicidal Effect common purslane ([2]; dose 5 g ai/a) | Herbicidal Effect velvetleaf ([3]; dose 2.5 g ai/a) | Herbicidal Effect velvetleaf ([3]; dose 5 g ai/a) | Herbicidal Effect slender amaranth ([4]; dose 2.5 g ai/a) | Herbicidal Effect slender amaranth ([4]; dose 5 g ai/a) | Phytotoxicity wheat (wheat [5]; dose 2.5 g ai/a) | Phytotoxicity wheat (wheat [5]; dose 5 g ai/a) | Herbicidal Effect southern crabgrass ([6]; dose 2.5 g ai/a) | Herbicidal Effect southern crabgrass ([6]; dose 5 g ai/a) | Phytotoxicity corn (corn [7]; dose 2.5 g ai/a) | Phytotoxicity corn (corn [7]; dose 5 g ai/a) | Herbicidal Effect common lambsquaters ([8]; dose 2.5 g ai/a) | Herbicidal Effect common lambsquaters ([8]; dose 5 g ai/a) | other results
1 | CCOCC(=Cc1cccc(C(F)(F)F)c1)c1nc2cc(F)c(C(F)(F)F)cc2o1 [Compound 141] | 0 | 0 | 5 (100%) | 5 (100%) | 3 (60%-less than 80%) | 5 (100%) | 5 (100%) | 5 (100%) | 0 | 1 | 4 (80%-less than 100%) | 5 (100%) | 0 | 0 | 5 (100%) | 5 (100%) | –
2 | COCC(=Cc1cccc(C(F)(F)F)c1)c1nc2cc(C#N)c(F)cc2o1 [Compound 117] | – | – | – | – | – | – | – | – | – | – | – | – | – | – | – | – | Herbicidal Effect southern crabgrass (southern crabgrass; dose 2.5 g ai/a): 4 (80%-less than 100%); Herbicidal Effect southern crabgrass (southern crabgrass; dose 5 g ai/a): 5 (100%); Phytotoxicity soybean (soybean [9]; dose 2.5 g ai/a): 0; Phytotoxicity soybean (soybean [9]; dose 5 g ai/a): 1; Herbicidal Effect common purslane (common purslane; dose 2.5 g ai/a): 5 (100%); Herbicidal Effect common purslane (common purslane; dose 5 g ai/a): 5 (100%); Phytotoxicity corn (corn [10]; dose 2.5 g ai/a): 0; Phytotoxicity corn (corn [10]; dose 5 g ai/a): 1; Herbicidal Effect slender amaranth (slender amaranth; dose 2.5 g ai/a): 5 (100%); Herbicidal Effect slender amaranth (slender amaranth; dose 5 g ai/a): 5 (100%); Herbicidal Effect velvetleaf (velvetleaf; dose 2.5 g ai/a): 4 (80%-less than 100%); Herbicidal Effect velvetleaf (velvetleaf; dose 5 g ai/a): 5 (100%); Herbicidal Effect Common lambsquatters (common lambsquaters; dose 2.5 g ai/a): 5 (100%); Herbicidal Effect Common lambsquatters (common lambsquaters; dose 5 g ai/a): 5 (100%); Phytotoxicity wheat (wheat [11]; dose 2.5 g ai/a): 0; Phytotoxicity wheat (wheat [11]; dose 5 g ai/a): 0
3 | CCOCC(=Cc1cccc(C(F)(F)F)c1)c1nc2cc(F)c(F)cc2o1 [Compound 127] | 0 | 0 | 5 (100%) | 5 (100%) | 3 (60%-less than 80%) | 5 (100%) | 5 (100%) | 5 (100%) | 0 | 0 | 4 (80%-less than 100%) | 5 (100%) | 0 | 0 | 5 (100%) | 5 (100%) | –
